In ChEMBL document CHEMBL1131999, “Design, synthesis and testing of amino-bicycloaryl based orally bioavailable thrombin inhibitors” (Bioorg Med Chem Lett, 1999) one finds IC50, Papp and bioavailability data, which are given here for 10 compounds.

The structures appear in SMILES notation.

In one data set the target is Prothrombin (Homo sapiens, UniProt P00734). As to the kind of experiment: In vitro thrombin inhibition.
The next data set deals with Serine protease 1 (Homo sapiens, UniProt P07477). As to the kind of experiment: In vitro trypsin inhibition.
Another data set relates to Caco-2. As to conditions: Homo sapiens.
The nature of data set [1]: Oral bioavailability in dog. The class given is ADME, organism-based, Canis lupus familiaris. As to conditions: in vivo.

Serine protease 1, sequence (P07477 whole entry): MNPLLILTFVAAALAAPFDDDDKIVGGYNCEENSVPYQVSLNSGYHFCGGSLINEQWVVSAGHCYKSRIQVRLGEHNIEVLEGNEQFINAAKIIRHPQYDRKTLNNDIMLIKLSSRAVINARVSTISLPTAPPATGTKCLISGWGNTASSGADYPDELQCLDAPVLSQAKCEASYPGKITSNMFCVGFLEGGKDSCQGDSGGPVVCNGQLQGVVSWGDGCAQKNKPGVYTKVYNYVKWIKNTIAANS
Description for Caco-2: The compound was evaluated in vitro for the Caco-2 cell permeability.

As to `COc1ccc2ccc(S(=O)(=O)NC(Cc3cc4c(N)nccc4s3)C(=O)N3CCN(S(C)(=O)=O)CC3)cc2c1` (stereo not given), the IC50 (usually the concentration that inhibits the measured activity by half) against Prothrombin worked out at 0.56 µM; at Serine protease 1 it was 18 µM.

As to `CC1CCN(C(=O)C(Cc2cc3c(N)nccc3s2)NS(=O)(=O)c2ccc3ccccc3c2)CC1` (stereo not given), the IC50 worked out at 209 µM against Prothrombin and 205 µM against Serine protease 1. The Papp (as a rule, the rate of passage across a membrane or cell layer, normalised by area and donor concentration) in the data set on Caco-2 is 11.7 ×10⁻⁶ cm/s.

As for `COc1ccc2ccc(S(=O)(=O)NC(Cc3cc4c(N)nccc4s3)C(=O)N3CCN(C)CC3)cc2c1` (stereo not given), the IC50 was determined as 6 µM against Prothrombin and 13 µM against Serine protease 1.

As to `CC1CCN(C(=O)C(Cc2cccc(C(=N)N)c2)NS(=O)(=O)c2ccc3ccccc3c2)CC1` (stereo not given), the IC50 on Prothrombin amounted to 0.64 µM; against Serine protease 1 it was 1.9 µM.

`COc1ccc2ccc(S(=O)(=O)NC(Cc3cc4c(N)nccc4s3)C(=O)N3CCC(C(C)=O)CC3)cc2c1` (stereo not given): the IC50 against Prothrombin was found to be 1.4 µM; against Serine protease 1 it was 2 µM. The compound also gave a Papp in the data set on Caco-2 of 2.3 ×10⁻⁶ cm/s.

For the compound `COc1ccc2ccc(S(=O)(=O)NC(Cc3ccc4c(N)nccc4c3)C(=O)N3CCC(C)CC3)cc2c1` (stereo not given), the IC50 at Prothrombin worked out at 48 µM; against Serine protease 1 it was 27 µM. This compound also yielded an apparent permeability (Papp) with Caco-2 of 7.5 ×10⁻⁶ cm/s.

For the compound `COc1cc2ccc(S(=O)(=O)NC(Cc3cc4c(N)nccc4s3)C(=O)N3CCC(C)CC3)cc2cc1OC` (stereo not given), the IC50 was determined as 5 µM against Prothrombin and 4 µM on Serine protease 1.

In the case of `COc1ccc2ccc(S(=O)(=O)NC(Cc3cc4c(N)nccc4o3)C(=O)N3CCC(C)CC3)cc2c1` (stereo not given), the IC50 came out at 1.58 µM on Prothrombin and 6 µM against Serine protease 1. Also, the Papp in the data set with Caco-2 was 0.9 ×10⁻⁶ cm/s.

For the compound `COc1ccc2ccc(S(=O)(=O)NC(Cc3ccc4ccnc(N)c4c3)C(=O)N3CCC(C)CC3)cc2c1` (stereo not given), the values for the IC50 against Prothrombin and at Serine protease 1 were 0.63 µM and 8 µM, respectively.

In the case of `COc1ccc2ccc(S(=O)(=O)NC(Cc3cc4c(N)nccc4s3)C(=O)N3CCC(C)CC3)cc2c1` (stereo not given), in data set [1], the bioavailability (as a rule, dose-corrected exposure relative to a reference, in per cent) worked out at 36%. This compound also came in with an IC50 at Serine protease 1 of 4 µM. In addition, the apparent permeability coefficient (Papp) with Caco-2 was 12.1 ×10⁻⁶ cm/s.
